Test results as given in publication PMC9986241 (Signal Transduction and Targeted Therapy, 2023).

Experiments:
[1] = tested on: CK1(y); experiment: KinaseProfiler enzyme profiling; format: biochemical, yeast; settings: 10 µM
Source text: Enzyme profiling services were provided by KinaseProfiler™ (Eurofin, Brussels, Belgium). […] For more details, refer to the manufacturer’s instructions (www.eurofinsdiscoveryservices.com).

[2] = tested on: MEK1/2; experiment: Erianin-conjugated Sepharose 4B bead pull-down assay; format: binding, human; settings: in vitro and ex vivo (A375 cell lysate)
Protocol: 293 T cells were transfected with plasmids of pcDNA3.1-3×Flag-C-MAP2K1/MAP2K1 (K97A, M146A), MAP2K2/MAP2K1 (K101A, M150A), or CRAF/CRAF (K375A). […]
Cell lysate (500 μg) or recombinant proteins (200 ng) were incubated with erianin-CNBr activated sepharose 4B overnight at 4 °C, and the protein-beads complex was washed four times by the use of rotational incubator to remove non-specific binding. Western blotting was developed to check the pull-down bands.

[3] = tested on: SK-MEL-2, A375, SK-MEL-28, and HCT 116 cells; experiment: Anchorage-independent cell growth assay; format: cell-based, human; settings: both BRAF and RAS mutant cell lines
Protocol: The synergism and antagonism (CI value) were determined and analyzed using CompuSyn 1.0.

[4] = tested on: HCT116 (KRAS mut) CDX; experiment: Cell-derived xenograft (CDX); format: in vivo, NOD-SCID mice; settings: 50 mg/kg, oral gavage
Protocol: (§1) Tumor volume (mm^3) = (length × width × height) × 0.52. SK-MEL-2: n = 10; A375 and SK-MEL-28: n = 8; HCT116: n = 9. b The photographs show tumors from CDX mice treated with vehicle, erianin, vemurafenib, or the combination. c The weight of the tumors was quantified and expressed as the treatment groups compared with the vehicle-treated group. […] The tissue lysates were prepared from CDX tumor tissues in each treatment group. […] Each point represents the IOD values of four quantified data from one mouse. Scale bars: 50 μm.
(§2) The animal experiments were performed according to the guidelines approved by the Zhengzhou University Institutional Animal Care and Use Committee. A375 cell line (1 × 10^7 cell/mouse), SK-MEL-28 cell line (5 × 10^6 cell/mouse), SK-MEL-2 cell (5 × 10^6 cell/mouse), and HCT116 cell line (1 × 10^7 cell/mouse) were injected subcutaneously into the NOD-SCID mice (Vital River Labs, Beijing, China). For the melanoma PDX mice model, the tumor was taken after surgical operation and implanted into the NPG (Vital River Labs, Beijing, China) mice under a sterile environment. For the colorectal cancer PDX mice model, NOD-SCID mice were selected as carriers for tumor growth. The measurement of tumor size was performed twice a week using vernier caliper and the calculation of tumor volume was done according to tumor volume (mm^3) = length × width × height × 0.52.

[5] = tested on: SK-MEL-2 (NRAS mut) CDX; experiment: Cell-derived xenograft (CDX); format: in vivo, NOD-SCID mice; settings: 50 mg/kg, oral gavage
Protocol: as §1, §2

[6] = tested on: B16F10 CDX; experiment: B16F10 cell xenograft; format: in vivo, C57BL-6J mice
Source text: Decrease of phospho-MEK1/2 was only observed in erianin and erianin/vemurafenib dual-therapy group, and even all erianin, erianin/vemurafenib dual-therapy, cobimetinib, and cobimetinib/vemurafenib dual-therapy group inhibited phosphorylation of ERK1/2 (Fig. 7d). […] Several clinical studies reveal that immune checkpoint therapies PD-1/PD-L1 synergistically promote RAF inhibitor in treatment of melanoma. Therefore, we checked the immune response involved in antitumor effect of erianin in vivo. After immunosuppression by hydrocortisone (50 mg/kg) for 1 week, B16F10 cell was implanted into C57BL-6J mice followed by vehicle or drug treatment. […]
Fig. 7 Erianin exerts antitumor efficacy in melanoma and colorectal cancer in vivo. a Tumor pharmacodynamic assay was performed in tumor-bearing NPG mice (tumor has been passaged from melanoma patient to mice for three generations). […] Tumor volume was measured once a week. […] One-way ANOVA test. ***p < 0.001. e Antitumor efficacy of erianin with or without immunity using B16F10 cell xenograft in C57BL-6J mouse. f, g Trend of tumor volume over time and tumor weight was measured after treatment on the last day of the study.
Peripheral blood or spleen lymphocytes (CD8a^+, CD4^+, and NK cell) in B16F10 CDX model after treated with erianin were quantified using BD FACSAria^TM III cell sorter. […]

Activity % [1] [%] | Structure (SMILES) | binding in pull-down [2] | colonies formation [3] | tumor volume and tumor weight [4] | tumor volume and tumor weight [5] | CD8a+, CD4+ T cells, and NK cells ([6]; flow cytometry after erianin treatment) | tumor growth ([6]; monotherapy)
95 | COc1cc2oc(-c3ccc(O)c(O)c3)cc(=O)c2c(O)c1OC [Cirsiliol] |  |  |  |  |  | 
 | COc1ccc(CCc2cc(OC)c(OC)c(OC)c2)cc1O [Erianin] | directly bound | markedly suppress | inhibited tumor volume and tumor weight significantly | inhibited tumor volume and tumor weight significantly | increased significantly | inhibited tumor growth
